What was measured:
Aedes aegypti = assay: K&D module behavioral bioassay (topical repellency, biting); type: in vivo
In short: (§1)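 In vitro six-cell K&D module over 38 °C CPDA+ATP artificial blood under collagen membrane, topped by nylon organdy treated with five ethanol dilutions of test chemical (ethanol blank; DEET ca. 10 μg/cm^2 positive control). Five starved (24 h) 5–10 d-old females per cell. Biting counted over 3 min, three replicates per chemical and species.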

Anopheles stephensi = assay: as above; type: in vivo
In short: as §1

[1] = system: antennae of housefly, sand fly, and mosquitoes Aedes aegypti, Anopheles gambiae, Anopheles stephensi; assay: GC-EAD antennal responses to SPME samples of clove essential oil; conditions: component of clove essential oil SPME sample; response by one or more of the insects; FIG. 1
Procedure: The GC-EAD antennal response of a female housefly (Musca domestica), sand fly (Phlebotomus papatasi), and mosquitoes including the species Aedes aegypti, Anopheles gambiae, and Anopheles stephensi were tested with clove essential oil. FIG. 1 is a simultaneous recording of GC flame ionization detection (FID) and electroantennographic detection (EAD) of the insect antennae to solid phase microextraction (SPME: CAR/PDMS) samples of clove essential oil in a 20 ml glass vial for 20 sec.
The following procedures were employed to test the EAD response of an insect antenna to a repellent compound. The GC-EAD technique provides an efficient tool for screening behaviorally active repellents. Several synthetic mixtures of potential insect repellent candidates, mostly sesquiterpene hydrocarbons and derivatives, were analyzed in splitless mode using a Varian CP-3800 GC equipped with a polar column (Innowax; 1.0 μm film thickness, 30 m×0.53 mm ID; J & W Scientific), and a 1:1 effluent splitter that allowed simultaneous flame ionization detection (FID) and EAD of the separated volatile compounds. Helium was used as the carrier gas, and the injector temperature was 220° C. The column temperature was 50° C. for 2 min, rising to 240° C. at 10° C./min, then held for 10 min. The outlet for the EAD was held in a humidified air stream flowing at 0.5 liter/min. over an antennal preparation. A glass capillary indifferent electrode filled with Beadle-Ephrussi Ringer, and grounded via a silver wire, was inserted into the severed insect's head with the antennae. A similar recording electrode connected to a high-impedance DC amplifier with automatic baseline drift compensation was placed in contact with the distal end of one antenna (Zhang et al., Chemoecology, 10:69-80 (2000)). The antennal signals were stored and analyzed on a PC equipped with a serial IDAC interface box and the program EAD ver. 2.5 (Syntech, Hilversum, The Netherlands). The compound 1-octen-3-ol (known attractant for many flies and mosquitoes) was included in most of the synthetic mixtures, as a positive control. […]

[2] = system: antennae of housefly, sand fly, and mosquitoes (Aedes aegypti, Aedes increpitus, Anopheles gambiae); assay: GC-EAD antennal responses to SPME samples of patchouli essential oil; conditions: component of patchouli essential oil SPME sample; response by one or more of the insects; FIG. 2
Procedure: (§2) The following procedures were employed to test the EAD response of an insect antenna to a repellent compound. The GC-EAD technique provides an efficient tool for screening behaviorally active repellents. Several synthetic mixtures of potential insect repellent candidates, mostly sesquiterpene hydrocarbons and derivatives, were analyzed in splitless mode using a Varian CP-3800 GC equipped with a polar column (Innowax; 1.0 μm film thickness, 30 m×0.53 mm ID; J & W Scientific), and a 1:1 effluent splitter that allowed simultaneous flame ionization detection (FID) and EAD of the separated volatile compounds. Helium was used as the carrier gas, and the injector temperature was 220° C. The column temperature was 50° C. for 2 min, rising to 240° C. at 10° C./min, then held for 10 min. The outlet for the EAD was held in a humidified air stream flowing at 0.5 liter/min. over an antennal preparation. A glass capillary indifferent electrode filled with Beadle-Ephrussi Ringer, and grounded via a silver wire, was inserted into the severed insect's head with the antennae. A similar recording electrode connected to a high-impedance DC amplifier with automatic baseline drift compensation was placed in contact with the distal end of one antenna (Zhang et al., Chemoecology, 10:69-80 (2000)). The antennal signals were stored and analyzed on a PC equipped with a serial IDAC interface box and the program EAD ver. 2.5 (Syntech, Hilversum, The Netherlands). The compound 1-octen-3-ol (known attractant for many flies and mosquitoes) was included in most of the synthetic mixtures, as a positive control.

[3] = system: male false stable fly Muscina stabulans antenna and female mosquito Aedes (Ochlerotatus) increpitus Dyar antenna; assay: GC-EAD responses of false stable fly and Aedes increpitus to a synthetic mixture; conditions: about 100 ng of each compound, FIG. 5
Procedure: The GC-EAD responses of the male false stable fly Muscina stabulans antenna and the female mosquito Aedes (Ochlerotatus) increpitus Dyar antenna were tested on a synthetic mixture of linalool and two representative sesquiterpene hydrocarbons, β-caryophyllene and α-humulene, and one sesquiterpene oxide, β-caryophyllene oxide, with about 100 ng of each compound in the mixture.
as §2, with “control. The results of the experiments are shown in FIGS. 1-10 and described above.” for “control.”

[4] = 10 μg/cm^2, DEET values are the positive control run with the chemical

Compound | % of biting (±SE) (N = 3) (Aedes aegypti; [4]) | % of biting (±SE) (N = 3) (Aedes aegypti; 100 μg/cm^2) | % of biting (±SE) (N = 3) (Aedes aegypti; 500 μg/cm^2) [a %] | % of biting (±SE) (N = 3) (Aedes aegypti; 1000 μg/cm^2) [a %] | % of biting (±SE) (N = 3) (Anopheles stephensi; [4]) | % of biting (±SE) (N = 3) (Anopheles stephensi; 100 μg/cm^2) | % of biting (±SE) (N = 3) (Anopheles stephensi; 500 μg/cm^2) [a %] | % of biting (±SE) (N = 3) (Anopheles stephensi; 1000 μg/cm^2) [a %] | GC-EAD antennal activity [1] | GC-EAD antennal activity [2] | GC-EAD antennal activity [3]
C=C1C2CCC3[C@H]2C(C)(C)CCC[C@]13C (single isomer, unassigned; (+)) [(+)-Longifolene] | 53 ± 7c % | 33 ± 13bc % | 0 ± 0 | 0 ± 0 | 53 ± 7c % | 33 ± 7bc % | 0 ± 0 | 0 ± 0 |  |  | 
C=C1CC/C=C(/C)CC[C@@H]2[C@@H]1CC2(C)C [Isocaryophyllene, isocaryophyllene] | 33 ± 7b % | 0 ± 0a % | 0 ± 0 | 0 ± 0 | 33 ± 13b % | 7 ± 7a % | 0 ± 0 | 0 ± 0 |  |  | 
C=C1CC/C=C(\C)CC[C@@H]2[C@@H]1CC2(C)C [β-Caryophyllene, β-caryophyllene] | 40 ± 12b % | 33 ± 24b % | 0 ± 0 | 0 ± 0 | 47 ± 18bc % | 40 ± 12bc % | 0 ± 0 | 7 ± 7 | EAD-active | elicited EAD-activity | active on at least one of the insects tested

Reference: patent publication US8057829B2, “Methods for repelling insects using sesquiterpene hydrocarbons and their derivatives” (Sterling International Inc., priority 2008, dated 2011)
